According to PubChem BioAssay (NCI):
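Cells were grown in 96-well plates and exposed to each compound for 48 hours at five concentrations; endpoints were interpolated linearly between bracketing concentrations, or set to the highest concentration if not reached. At the TGI there is no net growth.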

Legend:
Assay in all cases: NCI anticancer screen, dose series, 48 h
KM12 colon = test system: KM12 colon
UO-31 renal = test system: UO-31 renal
A498 renal = test system: A498 renal
PC-3 prostate = test system: PC-3 prostate
HCT-116 colon = test system: HCT-116 colon
U251 CNS = test system: U251 CNS
SN12C renal = test system: SN12C renal
UACC-257 melanoma = test system: UACC-257 melanoma
NCI-H460 lung = test system: NCI-H460 lung
NCI-H226 lung = test system: NCI-H226 lung
HS 578T breast = test system: HS 578T breast
SNB-75 CNS = test system: SNB-75 CNS
HOP-92 NSCLC = test system: HOP-92 NSCLC
OVCAR-8 ovarian = test system: OVCAR-8 ovarian
UACC-62 melanoma = test system: UACC-62 melanoma
K-562 leukemia = test system: K-562 leukemia
OVCAR-5 ovarian = test system: OVCAR-5 ovarian
HCT-15 colon = test system: HCT-15 colon
RPMI-8226 leukemia = test system: RPMI-8226 leukemia
HCC-2998 colon = test system: HCC-2998 colon
EKVX NSCLC = test system: EKVX NSCLC
BT-549 breast = test system: BT-549 breast
SNB-19 CNS = test system: SNB-19 CNS
RXF 393 renal = test system: RXF 393 renal
T-47D breast = test system: T-47D breast
M14 melanoma = test system: M14 melanoma
786-0 renal = test system: 786-0 renal
TK-10 renal = test system: TK-10 renal
IGROV1 ovarian = test system: IGROV1 ovarian
HOP-62 NSCLC = test system: HOP-62 NSCLC
A549 NSCLC = test system: A549 NSCLC
SW-620 colon = test system: SW-620 colon
HT29 colon = test system: HT29 colon
MDA-MB-231 breast = test system: MDA-MB-231 breast
CCRF-CEM leukemia = test system: CCRF-CEM leukemia
NCI-H23 lung = test system: NCI-H23 lung
COLO 205 colon = test system: COLO 205 colon
MALME-3M melanoma = test system: MALME-3M melanoma
ACHN renal = test system: ACHN renal
MCF7 breast = test system: MCF7 breast
SK-MEL-5 melanoma = test system: SK-MEL-5 melanoma
HL-60(TB) leukemia = test system: HL-60(TB) leukemia
SK-MEL-28 melanoma = test system: SK-MEL-28 melanoma
SR leukemia = test system: SR leukemia
MOLT-4 leukemia = test system: MOLT-4 leukemia

SMILES: COc1ccc(N2C(=Nc3ccccc3)SC(=N/S(=O)(=O)c3ccccc3)/C2=N\S(=O)(=O)c2ccccc2)cc1
- TGI (KM12 colon): 88.7 µM
- TGI (UO-31 renal): 55.3 µM
- TGI (A498 renal): 52.4 µM
- TGI (PC-3 prostate): 42.3 µM
- TGI (HCT-116 colon): 28.2 µM
- TGI (U251 CNS): 35.4 µM
- TGI (SN12C renal): 39.8 µM
- TGI (UACC-257 melanoma): 73.1 µM
- TGI (NCI-H460 lung): 26.2 µM
- TGI (NCI-H226 lung): 56.8 µM
- TGI (HS 578T breast): 55.7 µM
- TGI (SNB-75 CNS): 55 µM
- TGI (HOP-92 NSCLC): 42 µM
- TGI (OVCAR-8 ovarian): 39.6 µM
- TGI (UACC-62 melanoma): 19.8 µM
- TGI (K-562 leukemia): 44.1 µM
- TGI (OVCAR-5 ovarian): 50.7 µM
- TGI (HCT-15 colon): 31.8 µM
- TGI (RPMI-8226 leukemia): 50.8 µM
- TGI (HCC-2998 colon): 42 µM
- TGI (EKVX NSCLC): 61.2 µM
- TGI (BT-549 breast): 54.2 µM
- TGI (SNB-19 CNS): 57.5 µM
- TGI (RXF 393 renal): 28.2 µM
- TGI (T-47D breast): 20.1 µM
- TGI (M14 melanoma): > 100 µM
- TGI (786-0 renal): 64.8 µM
- TGI (TK-10 renal): 52.3 µM
- TGI (IGROV1 ovarian): 27.3 µM
- TGI (HOP-62 NSCLC): 98.5 µM
- TGI (A549 NSCLC): 46.5 µM
- TGI (SW-620 colon): > 100 µM
- TGI (HT29 colon): 48 µM
- TGI (MDA-MB-231 breast): 43.5 µM
- TGI (CCRF-CEM leukemia): 46 µM
- TGI (NCI-H23 lung): 27.4 µM
- TGI (COLO 205 colon): 41 µM
- TGI (MALME-3M melanoma): 53.9 µM
- TGI (ACHN renal): 61.1 µM
- TGI (MCF7 breast): 40.8 µM
- TGI (SK-MEL-5 melanoma): 31.9 µM
- TGI (HL-60(TB) leukemia): 33.4 µM
- TGI (SK-MEL-28 melanoma): 33.9 µM
- TGI (SR leukemia): 40.4 µM
- TGI (MOLT-4 leukemia): 45.6 µM
